Drawing on PubChem BioAssay (NCI), this text covers TGI for 14 compounds.

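Exposure lasted 48 hours, with cells grown in 96-well plates and compounds tested at five concentrations. Definition used: TGI = concentration required for complete inhibition of growth.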

The TGI is the concentration giving total growth inhibition. Low values mean greater sensitivity of the cells, high ones lower sensitivity of the cells.

Some test systems named below: MALME-3M melanoma; CCRF-CEM leukemia; SK-MEL-2 melanoma; OVCAR-4 ovarian; SF-539 CNS; NCI-H23 lung; SF-268 CNS; HCT-15 colon; SW-620 colon; ACHN renal; EKVX NSCLC; UACC-62 melanoma; U251 CNS; A498 renal; SF-295 CNS; OVCAR-3 ovarian; DU-145 prostate; MCF7 breast.
Common to all, as to assay: DTP human tumour cell line panel, 48 h

With `O=C(c1ccccc1)C(c1ccccc1)C1(O)C(=O)Nc2ccc([N+](=O)[O-])cc21` (stereo not drawn), the total growth inhibition concentration (TGI) with MALME-3M melanoma, in the experiment on CCRF-CEM leukemia, in the experiment on SK-MEL-2 melanoma, with OVCAR-4 ovarian, in the experiment with SF-539 CNS and with NCI-H23 lung was above 100 µM in each case. Also, the TGI in the experiment with SF-268 CNS, in the experiment with HCT-15 colon, in the experiment with SW-620 colon, in the experiment with ACHN renal, in the experiment with EKVX NSCLC and in the experiment on UACC-62 melanoma was above 100 µM throughout. Besides, the total growth inhibition concentration (TGI) in the experiment on U251 CNS and with A498 renal was above 100 µM each time.
Turning to `COc1ccc(Cc2c(=O)[nH]nc3ccccc23)cc1`, the TGI with MALME-3M melanoma, in the experiment with CCRF-CEM leukemia, in the experiment on SK-MEL-2 melanoma, with OVCAR-4 ovarian, in the experiment with SF-539 CNS and in the experiment with NCI-H23 lung was above 100 µM throughout. For the same compound, the TGI in the experiment with SF-295 CNS, in the experiment with SF-268 CNS, with HCT-15 colon, in the experiment with SW-620 colon, in the experiment on ACHN renal and in the experiment on EKVX NSCLC was above 100 µM throughout. Moreover, the TGI in the experiment with OVCAR-3 ovarian, in the experiment on UACC-62 melanoma and with A498 renal was above 100 µM in each case.
Consider `O=C(O)COc1ccc(C(=O)/C(SS/C(C(=O)c2ccc(OCC(=O)O)c(Cl)c2Cl)=C2\C=C(c3ccc(Cl)cc3)SS2)=C2/C=C(c3ccc(Cl)cc3)SS2)c(Cl)c1Cl`, for which the total growth inhibition concentration (TGI) is above 100 µM with MALME-3M melanoma; 5.85 µM in the experiment with CCRF-CEM leukemia; 33.7 µM in the experiment with SK-MEL-2 melanoma; 16.7 µM with OVCAR-4 ovarian; 17.9 µM in the experiment with SF-539 CNS; 40.8 µM in the experiment with NCI-H23 lung. Also, the TGI with SF-295 CNS is 82.5 µM; with SF-268 CNS it was 27.6 µM; in the experiment with HCT-15 colon, 18.1 µM; in the experiment on SW-620 colon it was 11.5 µM; in the experiment on ACHN renal, 25.4 µM; in the experiment with EKVX NSCLC, above 100 µM. In addition, the TGI in the experiment with OVCAR-3 ovarian is 26.6 µM; in the experiment on UACC-62 melanoma it was 25.7 µM; in the experiment on U251 CNS, 15.4 µM; in the experiment on A498 renal, above 100 µM.
Consider `C/C(CC(=O)Nc1cc(C)ccc1C)=N/N=C(N)N`, for which the TGI in the experiment with MALME-3M melanoma, in the experiment with CCRF-CEM leukemia, in the experiment with SK-MEL-2 melanoma, in the experiment on SF-539 CNS, in the experiment with NCI-H23 lung and in the experiment on SF-295 CNS was above 100 µM each time. Further, the concentration for total growth inhibition (TGI) in the experiment on SF-268 CNS, with SW-620 colon, in the experiment on ACHN renal, in the experiment with EKVX NSCLC, with OVCAR-3 ovarian and with UACC-62 melanoma was above 100 µM each time. In addition, the total growth inhibition concentration (TGI) in the experiment with U251 CNS and with A498 renal was above 100 µM in each case.
For `CC(=O)C1Cn2c(=O)c3cc4ccccc4cc3c(=O)n2C=C1C` (stereo not drawn), the TGI with MALME-3M melanoma, with CCRF-CEM leukemia, in the experiment on SK-MEL-2 melanoma, with OVCAR-4 ovarian, with SF-539 CNS and with NCI-H23 lung was above 100 µM in each case. The concentration for total growth inhibition (TGI) with SF-295 CNS, in the experiment with SF-268 CNS, in the experiment with HCT-15 colon, in the experiment on SW-620 colon, in the experiment on ACHN renal and in the experiment with EKVX NSCLC was above 100 µM in each case. For the same compound, the concentration for total growth inhibition (TGI) in the experiment with OVCAR-3 ovarian, with U251 CNS and in the experiment on A498 renal was above 100 µM each time.
For `O=C(Nc1cccc(C(F)(F)F)c1)C(=O)C1NC(=S)NC1=O` (stereo not drawn), the TGI with MALME-3M melanoma, with CCRF-CEM leukemia, in the experiment with SK-MEL-2 melanoma, with OVCAR-4 ovarian, with SF-539 CNS and with NCI-H23 lung was above 100 µM each time. Moreover, the TGI with SF-295 CNS was above 100 µM; in the experiment on SF-268 CNS, above 100 µM; in the experiment with HCT-15 colon, above 100 µM; in the experiment with SW-620 colon, 36.5 µM; with ACHN renal, above 100 µM; with EKVX NSCLC, above 100 µM. For the same compound, the TGI in the experiment with OVCAR-3 ovarian, with UACC-62 melanoma and with A498 renal was above 100 µM throughout.
For `C=CCN1COc2c(cc3c4c(cccc24)C(=O)O3)C1`, the TGI with MALME-3M melanoma was above 10 µM; with CCRF-CEM leukemia, 44.8 µM; in the experiment on SK-MEL-2 melanoma, above 100 µM; in the experiment with OVCAR-4 ovarian it was above 100 µM; in the experiment on NCI-H23 lung, 47 µM; in the experiment with SF-295 CNS, above 100 µM. Moreover, the TGI in the experiment on SF-268 CNS was above 100 µM; in the experiment on HCT-15 colon it was 50 µM; in the experiment with SW-620 colon, 62.7 µM; with ACHN renal it was above 10 µM; in the experiment with EKVX NSCLC, 92 µM; in the experiment on OVCAR-3 ovarian it was 72.5 µM. The results for the TGI in the experiment with UACC-62 melanoma, in the experiment on U251 CNS and with A498 renal were 36.8 µM, above 100 µM and 52.1 µM, respectively.
With `O=c1c2ccccc2nc2n1-c1ccccc1SC2`, the total growth inhibition concentration (TGI) with MALME-3M melanoma, in the experiment on CCRF-CEM leukemia, with SK-MEL-2 melanoma, in the experiment with OVCAR-4 ovarian, with SF-539 CNS and in the experiment with NCI-H23 lung was above 100 µM throughout. For the same compound, the concentration for total growth inhibition (TGI) in the experiment with SF-295 CNS, in the experiment on SF-268 CNS, in the experiment with HCT-15 colon, in the experiment with SW-620 colon, in the experiment with ACHN renal and in the experiment on EKVX NSCLC was above 100 µM throughout. For the same compound, the TGI with OVCAR-3 ovarian, in the experiment with UACC-62 melanoma, in the experiment on U251 CNS and in the experiment with A498 renal was above 100 µM in each case.
Consider `CCCN(CCC)C(=S)N/N=C/c1ccccn1`, for which the TGI in the experiment on DU-145 prostate is above 43.8 µM; in the experiment with MALME-3M melanoma it was 6.05 µM; with CCRF-CEM leukemia, 0.255 µM; in the experiment with SK-MEL-2 melanoma it was 14.9 µM; in the experiment on OVCAR-4 ovarian it was 0.9 µM; with SF-539 CNS it was 0.734 µM. For the same compound, the TGI amounted to 19.5 µM in the experiment on NCI-H23 lung; 21.7 µM with SF-295 CNS; 16.8 µM in the experiment on HCT-15 colon; 28.6 µM with SW-620 colon; 0.384 µM in the experiment with ACHN renal; 11.3 µM with EKVX NSCLC. For the same compound, the TGI was 1.91 µM in the experiment on UACC-62 melanoma, above 25.4 µM with U251 CNS and 4.03 µM with A498 renal.
Take `O=C1C=CC2(C=C1)CCNC1=C2C(=O)c2ccccc2C1=O`: the concentration for total growth inhibition (TGI) with MALME-3M melanoma, in the experiment on CCRF-CEM leukemia, in the experiment on SK-MEL-2 melanoma, in the experiment on OVCAR-4 ovarian, with SF-539 CNS and in the experiment with NCI-H23 lung was above 100 µM each time. For the same compound, the TGI in the experiment on SF-295 CNS, in the experiment with SF-268 CNS, in the experiment with HCT-15 colon, in the experiment on SW-620 colon, with ACHN renal and in the experiment with EKVX NSCLC was above 100 µM in each case. Also, the concentration for total growth inhibition (TGI) was 76.7 µM in the experiment on OVCAR-3 ovarian, above 100 µM in the experiment on UACC-62 melanoma, above 100 µM in the experiment on U251 CNS and above 100 µM in the experiment with A498 renal.
As to `COc1ccc(-c2c3c(n(C4OC(COC(C)=O)C(OC(C)=O)C(OC(C)=O)C4OC(C)=O)c(=S)c2C#N)CCC3)cc1` (stereo not drawn), the concentration for total growth inhibition (TGI) in the experiment on DU-145 prostate, in the experiment on MALME-3M melanoma, with CCRF-CEM leukemia, with SK-MEL-2 melanoma, with OVCAR-4 ovarian and in the experiment on SF-539 CNS was above 100 µM each time. Moreover, the concentration for total growth inhibition (TGI) in the experiment with NCI-H23 lung, in the experiment with SF-295 CNS, in the experiment with SF-268 CNS, with MCF7 breast, in the experiment on HCT-15 colon and in the experiment with SW-620 colon was above 100 µM in each case. The TGI with ACHN renal, in the experiment on OVCAR-3 ovarian, in the experiment with UACC-62 melanoma and in the experiment with U251 CNS was above 100 µM each time.
For `N#CC1=C(c2ccccc2)C(=C2Nc3ccccc3N2)C2S/C(=C\c3ccccc3)C(=O)N2C1=N` (stereo not drawn), the TGI in the experiment with MALME-3M melanoma is 4.07 µM; with CCRF-CEM leukemia, 6.66 µM; in the experiment with SK-MEL-2 melanoma it was 4.05 µM; with OVCAR-4 ovarian, 6.4 µM; with SF-539 CNS, 3.35 µM; in the experiment on NCI-H23 lung, 4.49 µM. The TGI was 6.21 µM in the experiment with SF-295 CNS; 6.35 µM in the experiment on SF-268 CNS; 10.3 µM in the experiment on HCT-15 colon; 15.8 µM in the experiment on SW-620 colon; 10.1 µM in the experiment with ACHN renal; 5.2 µM in the experiment with EKVX NSCLC. Also, the TGI worked out at 3.37 µM in the experiment on OVCAR-3 ovarian, 4.76 µM in the experiment on UACC-62 melanoma, 5.54 µM in the experiment on U251 CNS and 7.73 µM in the experiment on A498 renal.
Regarding `NC(=O)/C(=N\NC(=O)C[n+]1ccccc1)C1NC(=O)NC1=O` (stereo not drawn), the concentration for total growth inhibition (TGI) in the experiment with MALME-3M melanoma, in the experiment with CCRF-CEM leukemia, in the experiment with SK-MEL-2 melanoma, in the experiment on OVCAR-4 ovarian, in the experiment with SF-539 CNS and in the experiment on NCI-H23 lung was above 100 µM in each case. Further, the TGI with SF-295 CNS, in the experiment on SF-268 CNS, in the experiment with HCT-15 colon, with SW-620 colon, in the experiment on ACHN renal and in the experiment on EKVX NSCLC was above 100 µM throughout. Moreover, the concentration for total growth inhibition (TGI) in the experiment on OVCAR-3 ovarian, with UACC-62 melanoma and in the experiment on A498 renal was above 100 µM in each case.
As to `COc1cc(O)c2c(c1)O[C@@H]1OCC[C@H]21`, the TGI in the experiment with MALME-3M melanoma, with CCRF-CEM leukemia, in the experiment with SK-MEL-2 melanoma, in the experiment with OVCAR-4 ovarian, with SF-539 CNS and in the experiment on NCI-H23 lung was above 100 µM in each case. Also, the TGI in the experiment on SF-295 CNS, with HCT-15 colon, in the experiment with SW-620 colon, in the experiment with ACHN renal, with EKVX NSCLC and in the experiment with OVCAR-3 ovarian was above 100 µM in each case. Also, the TGI with UACC-62 melanoma, in the experiment on U251 CNS and in the experiment on A498 renal was above 100 µM throughout.
